Test results published in patent US6716809B1, “Mage-A3 peptides presented by HLA class molecules” (priority 1997, dated 2004).

Assays:
Assay type in all cases: cell-based, human
LB1158 CD4+ clone 22 = test: IFN-γ production by CD4+ clone 22 stimulated with peptide- or protein-pulsed EBV-B cells; settings: HLA-DR13 EBV-B cells
Procedure: (§1) In order to confirm the efficacy of this protocol, dendritic cells were fed with the MAGE-3 protein, using conditions described above, to stimulate autologous CD4^+ T lymphocytes from hemochromatosis patient LB1158 or from melanoma patient 7002. After four restimulations, the specific production of IFN-γ by an aliquot of each of the microcultures stimulated with the autologous EBV-B cells loaded with MAGE-A3 were tested on day 35 for patient LB1158 and day 37 for patient 7002. For each individual, one positive microculture was cloned using autologous EBV-B cells as stimulating cells, either retrotransduced with MFG Ii MAGE-A3 for LB1158, or fed with protein MAGE-A3 for patient 7002. […] Specifically, autologous EBV-B cells were incubated for 20 h in the presence of 20 μg/ml of recombinant His-MAGE-A3 protein. Clone 22 (2500 cells) was incubated overnight with 5000 MAGE-A3 loaded EBV-B cells in round botton microwells in the presence or absence of monoclonal antibodies which recognize HLA-A,B,C (W6/32) or HLA-DR (2B6). IFN-γ secretion was measured after 20 h by ELISA (FIG. 15A).
(§2) Peptides corresponding to parts of MAGE-A3 (e.g., MAGE107-122, MAGE111-126, MAGE115-130, MAGE119-134) were tested for recognition by clone 2 and 22. HLA-DR13 EBV-B cells were pulsed for 2 h with different concentrations of these peptides. Clones 2 and 37 (2500 cells) were incubated with 5000 peptide pulsed cells in round-bottomed microwells for 20 h and assayed for IFN-γ production.
(§3) Autologous or allogeneic EBV-B cells were pulsed for 2 h with 1 μg/ml MAGE-A3119-134 peptide, and then washed. Clones 2 or 22 were incubated with 5000 peptide-pulsed EBV-B cells in round-bottomed microwells for 20 h and the clones' reactivity to the EBV-B cells was measured by ELISA as IFN-γ secretion. Experiments were performed in triplicate.
(§4) Unlike HLA-class I-restricted peptides, class II-restricted peptides usually vary in length and tolerate extensions at both the amino and carboxy termini, because they are not fixed by their ends in the groove. It is therefore difficult to define precisely the length of the antigenic peptide. Therefore a large number of MAGE-A3 peptides were tested at different concentrations (Tables IV and V). […] 2500 cells of clone 37 were then cocultured for 20 h in round-bottomed microwells with 5000 peptide-pulsed cells. IFN-γ released in the supernatant of the cocultures was measured in an ELISA assay. The experiments were performed in triplicate. […] Clones 2 and 22 (2500 cells) were then cocultured for 20 h in round-bottomed microwells with 5000 peptide-pulsed cells. IFN-γ released in the supernatant of the cocultures was measured in an ELISA assay. The experiments was performed twice in duplicates.

7002 CD4+ clone 2 = test: IFN-γ production by CD4+ clone 2 stimulated with peptide- or protein-pulsed EBV-B cells; settings: HLA-DR13 EBV-B cells
Procedure: as §1, §2, §3, §4

[1] = system: CD4+ clone 436/B6.37 (B6/37); test: IFN-γ/TNF production by CD4+ clone B6/37 (clone 37) stimulated with peptide- or protein-pulsed EBV-B cells; settings: for IFN-γ production by clone 37: autologous LB 1555 EBV-B cells; for IFN-γ production by clone B6/37, truncated peptides: autologous EBV-B cells pulsed with truncated peptides (FIG. 8)
Procedure: The microcultures that contained proliferating CD4^+ T cells were assessed around 35 days after the start of the culture for their capacity to produce TNF and/or IFN-γ when stimulated with autologous EBV-B cells pulsed with the His-MAGE-A3 protein. Autologous EBV-B cells (500,000/ml) were incubated for 18-20 hours at 37° C. in the presence of 20 μg/ml of His-MAGE-A3 protein, or Ovalbumin (Sigma) as a negative control. EBV-B cells referred to herein are B cells which were immortalized with Epstein Barr virus. The EBV-B cells were prepared according to art-standard procedures. Protein-pulsed EBV-B cells were washed and added at 5,000 per round-bottomed microwell to 2,500 CD4^+ T lymphocytes in 150 μl of complete Iscove's medium supplemented with L-glutamine, L-arginine, L-asparagine, 10% human serum and IL-2 (25 U/ml). After 18-20 hours, supernatants were harvested and assessed for TNF content by testing the cytotoxic effect of the supernatants on TNF-sensitive WEHI 164 clone 13 cells as previously described (Espevik and Nissen-Meyer, J. Immunol. Methods 95:99-105, 1986) in a MTT colorimetric assay as previously described (Hansen et al., J. Immunol. Methods 119:203-210, 1989; Traversari et al., Immunogenetics 35:145-152, 1992). IFN-γ production was measured using an ELISA assay developed in our laboratory (see below) with reagents from Medgenix Diagnostics-Biosource (Fleurus, Belgium). Inhibition with mAbs W6/32 (anti-HLA class I) or 2B6 (anti-HLA-DR) was performed by addition of a 1/20 dilution of ascites during the experiment. Cytokine secretion in response to autologous EBV-B cells pulsed with MAGE-A3 was considered significant if it was at least twofold above the background response of T cells to EBV-B cells pulsed with ovalbumin, and if it exceeded 500 pg of IFN-γ or 50 pg/ml of TNF per ml.
In order to identify the MAGE-A3 peptides recognized by these CD4^+ clones, 16 amino acid peptides, corresponding to parts of the MAGE-A3 protein sequence were synthesized, loaded on the autologous EBV-B cells and tested for recognition (FIGS. 4 and 5). Peptides were synthesized using F-moc for transient NH2-terminal protection and were characterized using mass spectrometry. […] Lyophilized synthetic peptides were dissolved in DMSO (Merck) and used at a final concentration of 500 μM, 50 μM or 5 μg/ml. EBV-B cells (5,000 per round-bottomed microwell) were incubated 2 hours at 37° C., 8% CO2 in the presence of the different peptides, the indicated concentrations representing the peptide concentration during the incubation step. CD4^+ clones were then added at 2,500 cells per well. Assay medium was Iscove's medium supplemented with L-glutamine, L-arginine, L-asparagine, 10% human serum and IL-2 (25 U/ml). After 18-20 hours, supernatants were harvested and assessed for TNF-α and/or IFN-γ secretion. IFN-γ production was measured using an ELISA test (20-4000 pg/ml) developed in the laboratory with reagents from Medgenix Diagnostics-Biosource (Fleurus, Belgium).
To further define the HLA-restriction element utilized by clone B6/37, additional EBV-B cell lines were used for peptide presentation as described above (FIG. 7).
Unlike HLA-class I-restricted peptides, class II-restricted peptides usually vary in length and tolerate extensions at both the amino and carboxy termini, because they are not fixed by their ends in the groove. It is therefore difficult to define precisely the length of the antigenic peptide. Therefore a large number of MAGE-A3 peptides were tested at different concentrations (Tables IV and V). […] 2500 cells of clone 37 were then cocultured for 20 h in round-bottomed microwells with 5000 peptide-pulsed cells. IFN-γ released in the supernatant of the cocultures was measured in an ELISA assay. The experiments were performed in triplicate.

[2] = peptide concentration 100 ng/ml
[3] = peptide concentration 300 ng/ml
[4] = peptide concentration 1000 ng/ml

| Substance | IFN-γ production by clone 37 ([1]; peptide concentration 1 ng/ml) | IFN-γ production by clone 37 ([1]; peptide concentration 3 ng/ml) | IFN-γ production by clone 37 ([1]; peptide concentration 10 ng/ml) | IFN-γ production by clone 37 ([1]; peptide concentration 30 ng/ml) | IFN-γ production by clone 37 [1, 2] | IFN-γ production by clone 37 [1, 3] | IFN-γ production by clone 37 [1, 4] | other results |
| --- | --- | --- | --- | --- | --- | --- | --- | --- |
| KYRAREPVTKAE (listed as Homo sapiens) | – | – | – | – | – | – | – | IFN-γ production by clone 22 (LB1158 CD4+ clone 22; peptide concentration 1 ng/ml): 0 pg/mL; IFN-γ production by clone 22 (LB1158 CD4+ clone 22; peptide concentration 3 ng/ml): 5 pg/mL; IFN-γ production by clone 22 (LB1158 CD4+ clone 22; peptide concentration 10 ng/ml): 0 pg/mL; IFN-γ production by clone 22 (LB1158 CD4+ clone 22; peptide concentration 30 ng/ml): 5 pg/mL; IFN-γ production by clone 22 (LB1158 CD4+ clone 22; [2]): 16 pg/mL; IFN-γ production by clone 22 (LB1158 CD4+ clone 22; [3]): 135 pg/mL; IFN-γ production by clone 22 (LB1158 CD4+ clone 22; [4]): 542 pg/mL; IFN-γ production by clone 2 (7002 CD4+ clone 2; peptide concentration 1 ng/ml): 0 pg/mL; IFN-γ production by clone 2 (7002 CD4+ clone 2; peptide concentration 3 ng/ml): 0 pg/mL; IFN-γ production by clone 2 (7002 CD4+ clone 2; peptide concentration 10 ng/ml): 0 pg/mL; IFN-γ production by clone 2 (7002 CD4+ clone 2; peptide concentration 30 ng/ml): 0 pg/mL; IFN-γ production by clone 2 (7002 CD4+ clone 2; [2]): 0 pg/mL; IFN-γ production by clone 2 (7002 CD4+ clone 2; [3]): 0 pg/mL; IFN-γ production by clone 2 (7002 CD4+ clone 2; [4]): 50 pg/mL |
| FLLLKYRAREPV (listed as Homo sapiens) | – | – | – | – | – | – | – | IFN-γ production by clone 22 (LB1158 CD4+ clone 22; peptide concentration 1 ng/ml): 0 pg/mL; IFN-γ production by clone 22 (LB1158 CD4+ clone 22; peptide concentration 3 ng/ml): 3 pg/mL; IFN-γ production by clone 22 (LB1158 CD4+ clone 22; peptide concentration 10 ng/ml): 13 pg/mL; IFN-γ production by clone 22 (LB1158 CD4+ clone 22; peptide concentration 30 ng/ml): 132 pg/mL; IFN-γ production by clone 22 (LB1158 CD4+ clone 22; [2]): 383 pg/mL; IFN-γ production by clone 22 (LB1158 CD4+ clone 22; [3]): 746 pg/mL; IFN-γ production by clone 22 (LB1158 CD4+ clone 22; [4]): 1353 pg/mL; IFN-γ production by clone 2 (7002 CD4+ clone 2; peptide concentration 1 ng/ml): 0 pg/mL; IFN-γ production by clone 2 (7002 CD4+ clone 2; peptide concentration 3 ng/ml): 4 pg/mL; IFN-γ production by clone 2 (7002 CD4+ clone 2; peptide concentration 10 ng/ml): 78 pg/mL; IFN-γ production by clone 2 (7002 CD4+ clone 2; peptide concentration 30 ng/ml): 216 pg/mL; IFN-γ production by clone 2 (7002 CD4+ clone 2; [2]): 821 pg/mL; IFN-γ production by clone 2 (7002 CD4+ clone 2; [3]): 1632 pg/mL; IFN-γ production by clone 2 (7002 CD4+ clone 2; [4]): 2667 pg/mL |
| ELVHFLLLKYRARE (listed as Homo sapiens) | 25 pg/mL | 160 pg/mL | 166 pg/mL | 1087 pg/mL | 3095 pg/mL | >4000 pg/mL | >4000 pg/mL | – |
| MAGE-A3118-126: shortened MAGE-A3 peptide, residues 118-126 | – | – | – | – | – | – | – | IFN-γ production by clone B6/37, truncated peptides [1]: did not induce the production of significant amounts |
| VAELVHFLLLKYRAR (listed as Homo sapiens) | 146 pg/mL | 262 pg/mL | 779 pg/mL | 2963 pg/mL | >4000 pg/mL | >4000 pg/mL | >4000 pg/mL | – |
| MAGE-A3116-126: shortened MAGE-A3 peptide, residues 116-126 (LVHFLLLKYRA; listed as Homo sapiens) | – | – | – | – | – | – | – | IFN-γ production by clone B6/37, truncated peptides [1]: reduced amounts |
| VAELVHFLLLKYRARE (listed as Homo sapiens) | 30 pg/mL | 300 pg/mL | 376 pg/mL | 1647 pg/mL | >4000 pg/mL | >4000 pg/mL | >4000 pg/mL | – |
| VAELVHFLLLKYRA (listed as Homo sapiens) | 7 pg/mL | 179 pg/mL | 87 pg/mL | 648 pg/mL | 2534 pg/mL | >4000 pg/mL | >4000 pg/mL | – |
| AELVHFLLLKYRAR (listed as Homo sapiens) | 151 pg/mL | 272 pg/mL | 802 pg/mL | 2862 pg/mL | >4000 pg/mL | >4000 pg/mL | >4000 pg/mL | recognition of short peptide by clone 37 ([1]; conclusion from Table IV): well recognized |
| AELVHFLLLKYRA (listed as Homo sapiens) | 134 pg/mL | 139 pg/mL | 620 pg/mL | 2523 pg/mL | >4000 pg/mL | >4000 pg/mL | >4000 pg/mL | – |
| VHFLLLKYRA (listed as Homo sapiens) [MAGE-A3117-126] | – | – | – | – | – | – | – | IFN-γ production by clone B6/37, truncated peptides [1]: reduced amounts |
| ELVHFLLLKYRAR (listed as Homo sapiens) | 47 pg/mL | 192 pg/mL | 333 pg/mL | 1899 pg/mL | 3633 pg/mL | >4000 pg/mL | >4000 pg/mL | – |
| AELVHFLLLKYRARE (listed as Homo sapiens) | 38 pg/mL | 230 pg/mL | 235 pg/mL | 1473 pg/mL | 3837 pg/mL | >4000 pg/mL | >4000 pg/mL | – |
| ELVHFLLLKYRA (listed as Homo sapiens) [MAGE-A3115-126] | – | – | – | – | – | – | – | IFN-γ production by clone B6/37, truncated peptides [1]: induced significant production |
